Test results reported in PMC10279920, “Single-molecule visualization of Pif1 helicase translocation on single-stranded DNA” (The Journal of Biological Chemistry, 2023).
Changes are numbered by the printed parent chain.

Key:
Assay in all cases: ATP hydrolysis, [γ-32P]-ATP TLC, Michaelis-Menten fit
Assay type in all cases: biochemical
Conditions in all cases: M13 ssDNA 1.5 μM nt, 10 nM Pif1, 5 mM MgCl2, 60 mM KCl, pH 7.5, 30 °C, no RPA; labelled compound as tracer
GFP-Pif1 [1] = target: T1, GFP-Pif1 (Saccharomyces cerevisiae, UniProt P07271, H705A)
T1 construct: N-terminal superfolder GFP fusion of nuclear isoform residues 40-859, pRSF-Duet-1, E. coli Rosetta2(DE3), Ni-NTA purified
T1 sequence (P07271 40-859 H705A): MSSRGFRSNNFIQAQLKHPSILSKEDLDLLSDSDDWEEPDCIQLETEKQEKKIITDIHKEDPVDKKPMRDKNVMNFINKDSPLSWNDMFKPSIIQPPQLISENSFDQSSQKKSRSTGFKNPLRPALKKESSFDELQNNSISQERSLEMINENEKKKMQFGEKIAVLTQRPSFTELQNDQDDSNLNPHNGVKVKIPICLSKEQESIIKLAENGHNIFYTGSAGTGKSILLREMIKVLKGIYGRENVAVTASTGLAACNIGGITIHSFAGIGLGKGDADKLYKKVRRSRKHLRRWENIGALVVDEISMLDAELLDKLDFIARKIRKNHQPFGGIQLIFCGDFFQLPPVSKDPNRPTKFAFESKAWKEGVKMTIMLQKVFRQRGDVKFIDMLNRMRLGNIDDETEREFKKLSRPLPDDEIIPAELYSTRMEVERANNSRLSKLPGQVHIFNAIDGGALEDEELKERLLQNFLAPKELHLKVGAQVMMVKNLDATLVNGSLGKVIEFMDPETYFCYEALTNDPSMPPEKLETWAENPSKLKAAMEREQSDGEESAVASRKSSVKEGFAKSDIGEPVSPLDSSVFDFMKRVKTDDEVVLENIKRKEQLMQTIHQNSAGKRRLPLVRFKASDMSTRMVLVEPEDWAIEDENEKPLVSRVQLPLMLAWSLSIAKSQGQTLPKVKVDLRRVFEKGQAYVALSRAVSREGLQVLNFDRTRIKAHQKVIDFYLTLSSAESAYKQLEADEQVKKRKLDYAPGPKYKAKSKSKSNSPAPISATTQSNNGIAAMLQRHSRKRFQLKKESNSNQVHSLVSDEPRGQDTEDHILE

GFP-Pif1 [2] = target: T2, GFP-Pif1 (Saccharomyces cerevisiae, UniProt P07271, G291P)
T2 construct: N-terminal superfolder GFP fusion of nuclear isoform residues 40-859, pRSF-Duet-1, E. coli Rosetta2(DE3), Ni-NTA purified
T2 sequence (P07271 40-859 G291P): T1 sequence (P07271 40-859 H705A) with G252P, A666H

GFP-Pif1 [3] = target: T3, GFP-Pif1 (Saccharomyces cerevisiae, UniProt P07271, K312A)
T3 construct: N-terminal superfolder GFP fusion of nuclear isoform residues 40-859, pRSF-Duet-1, E. coli Rosetta2(DE3), Ni-NTA purified
T3 sequence (P07271 40-859 K312A): T1 sequence (P07271 40-859 H705A) with K273A, A666H
Procedure: ATP hydrolysis, [γ-32P]-ATP TLC, Michaelis-Menten fit on GFP-Pif1 | each of the mutant proteins was tested for ATPase activity

Nc1ncnc2c1ncn2[C@@H]1O[C@H](COP(=O)(O)OP(=O)(O)OP(=O)(O)O)[C@@H](O)[C@H]1O [ATP]
Km (GFP-Pif1 [1]): 1210 µM
Km (GFP-Pif1 [2]): 760 ± 290 µM
Km (GFP-Pif1 [3]): 380 ± 310 µM
